# Experimental data published in patent publication US20250325690A1, “ANTIBODY-DRUG CONJUGATE WITH TWO TYPES OF DRUG-LINKER CONJUGATES ON SINGLE ANTIBODY” (priority 2022, published 2025).
# “Also recorded” adds a separate entry of the source. Read-outs that look alike come from different tables or passages of the source.
# Columns and labels:
# [1] = target: T1, DDX5 (Homo sapiens, UniProt P17844); format: cell-based; conditions: FaDu and A549, 0, 10, 100 nM, 24 hours
# T1 construct: endogenous in cells; host or cells: FaDu and A549 cell lines
# T1 sequence (P17844 whole entry): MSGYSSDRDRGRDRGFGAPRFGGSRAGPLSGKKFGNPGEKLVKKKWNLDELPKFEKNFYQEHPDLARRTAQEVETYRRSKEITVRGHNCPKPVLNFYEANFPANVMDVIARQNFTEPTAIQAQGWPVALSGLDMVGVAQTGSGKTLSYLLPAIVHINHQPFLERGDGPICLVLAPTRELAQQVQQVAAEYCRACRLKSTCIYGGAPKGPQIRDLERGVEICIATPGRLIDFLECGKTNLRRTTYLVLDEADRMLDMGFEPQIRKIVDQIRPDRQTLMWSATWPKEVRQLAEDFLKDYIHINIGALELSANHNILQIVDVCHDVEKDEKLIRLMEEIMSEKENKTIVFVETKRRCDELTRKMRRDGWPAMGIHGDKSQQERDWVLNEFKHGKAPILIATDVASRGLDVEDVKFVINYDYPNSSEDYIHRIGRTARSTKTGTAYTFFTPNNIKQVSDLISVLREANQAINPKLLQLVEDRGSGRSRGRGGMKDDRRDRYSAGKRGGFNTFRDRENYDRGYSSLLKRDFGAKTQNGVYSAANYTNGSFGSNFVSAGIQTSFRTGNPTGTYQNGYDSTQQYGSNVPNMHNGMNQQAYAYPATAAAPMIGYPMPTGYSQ
# [2] = target: T2, DNA topoisomerase-1 (Homo sapiens, UniProt P11387); conditions: cited from earlier work
# T2 sequence (P11387 1-765): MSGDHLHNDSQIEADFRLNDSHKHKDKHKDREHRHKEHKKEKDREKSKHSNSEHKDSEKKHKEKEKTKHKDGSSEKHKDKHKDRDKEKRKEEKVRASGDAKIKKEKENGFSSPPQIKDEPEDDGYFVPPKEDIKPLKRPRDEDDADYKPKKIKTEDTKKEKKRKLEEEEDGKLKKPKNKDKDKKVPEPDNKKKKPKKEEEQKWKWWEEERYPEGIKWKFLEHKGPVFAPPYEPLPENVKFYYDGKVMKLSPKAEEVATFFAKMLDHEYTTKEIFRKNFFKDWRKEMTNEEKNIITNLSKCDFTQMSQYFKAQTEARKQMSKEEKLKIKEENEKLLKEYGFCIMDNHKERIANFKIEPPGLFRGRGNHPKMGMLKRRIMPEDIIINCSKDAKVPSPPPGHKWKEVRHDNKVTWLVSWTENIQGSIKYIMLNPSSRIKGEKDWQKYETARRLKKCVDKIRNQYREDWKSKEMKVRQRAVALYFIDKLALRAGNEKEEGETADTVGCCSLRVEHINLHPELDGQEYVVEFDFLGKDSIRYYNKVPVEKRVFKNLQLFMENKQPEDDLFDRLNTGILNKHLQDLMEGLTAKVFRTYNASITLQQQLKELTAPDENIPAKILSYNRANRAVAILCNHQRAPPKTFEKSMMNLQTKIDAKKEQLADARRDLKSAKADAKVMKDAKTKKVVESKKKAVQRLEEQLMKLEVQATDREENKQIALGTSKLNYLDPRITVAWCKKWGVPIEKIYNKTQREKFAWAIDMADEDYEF
# [3] = test system: cancer cells; conditions: cited from earlier work
# [4] = test system: cancer cells; test: Cytotoxicity in cancer cell lines; format: cell-based; conditions: 140 cell lines from various cancer types, most cancer cells
# [5] = test system: survivin, cIAP2, Mcl-1, XIAP; test: Western blotting of anti-apoptotic protein expression; conditions: HCT-8 and FaDu cell lines; FIG. 17
# [6] = GLP-toxicity tests; format: in vivo; conditions: mice and beagle dogs
# [7] = target: T3, ABCG2 transporter (Homo sapiens, UniProt Q9UNQ0); test: Effect of ABCG2 transporter on drug; format: cell-based
# T3 sequence (Q9UNQ0 1-655): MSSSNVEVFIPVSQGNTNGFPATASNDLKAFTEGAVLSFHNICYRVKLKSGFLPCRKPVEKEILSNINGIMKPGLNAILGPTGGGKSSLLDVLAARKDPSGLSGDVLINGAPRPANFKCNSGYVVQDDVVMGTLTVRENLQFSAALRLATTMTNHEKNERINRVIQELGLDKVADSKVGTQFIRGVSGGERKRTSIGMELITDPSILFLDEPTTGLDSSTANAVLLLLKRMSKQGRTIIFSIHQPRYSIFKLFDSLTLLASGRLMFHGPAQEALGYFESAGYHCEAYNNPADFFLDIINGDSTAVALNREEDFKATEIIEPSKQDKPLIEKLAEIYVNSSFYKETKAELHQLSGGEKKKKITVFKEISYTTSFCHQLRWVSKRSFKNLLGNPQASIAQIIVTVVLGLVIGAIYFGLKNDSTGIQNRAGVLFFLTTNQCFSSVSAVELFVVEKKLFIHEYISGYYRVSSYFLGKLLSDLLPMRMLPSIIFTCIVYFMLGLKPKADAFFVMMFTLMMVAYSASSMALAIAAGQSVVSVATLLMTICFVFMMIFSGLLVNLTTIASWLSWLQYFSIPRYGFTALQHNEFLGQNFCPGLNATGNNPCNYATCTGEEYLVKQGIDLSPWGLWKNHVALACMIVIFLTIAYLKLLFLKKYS
# [8] = test system: cancer cell line xenograft models; test: Cancer cell line xenograft models, FL118 versus SN-38; format: in vivo; conditions: same amount as SN-38
# [9] = test system: FaDu cell line not expressing ABCG2; test: In vitro cell viability test, FaDu; conditions: FIG. 28, 3 days
# [10] = human, in vivo; cited from earlier work
molecule,measurement,setting,value
"CC[C@@]1(O)C(=O)OCc2c1cc1n(c2=O)Cc2c-1nc1cc3c(c4c1c2[C@@H](N)CC4)OCO3 (single isomer, unassigned) [PBX-7011]",DDX5 degradation,[1],degrading DDX5
same,DDX5 degradation,[1]; listed as 7011,"followed by 7011, 7016, and 7014 in this order"
CC[C@@]1(O)C(=O)OCc2c1cc1n(c2=O)Cc2c-1nc1cc(F)c(C)c3c1c2[C@@H](NC(=O)CO)CC3 [Dxd],DDX5 degradation,[1],exhibits a MoA that degrades the DDX5 protein
same,IC50,[2],310 nM
same,cytotoxicity / activity in cancer cells relative to SN-38,[3],about 10 times
CC[C@@]1(O)C(=O)OCc2c1cc1n(c2=O)Cc2cc3cc4c(cc3nc2-1)OCO4 [FL118],DDX5 degradation,[1],superior to other substances
same,IC50,[4],< 100 nM
same,downregulating a tumor protein compared to SN-38,[5],better effect in downregulating a tumor protein
same,safety,[6],excellent safety
same,effect of ABCG2 transporter,[7],not affected by the ABCG2 transporter
same,efficacy compared to SN-38,[8],superior efficiency compared to SN-38; also recorded: strong tumor regression efficacy compared to SN-38
CC[C@@]1(O)C(=O)OCc2c1cc1n(c2=O)Cc2c-1nc1cc3c(c4c1c2[C@@H](NC(=O)CO)CC4)OCO3 [PBX-7014],DDX5 degradation,[1],degrading DDX5
same,DDX5 degradation,[1]; listed as 7014,"followed by 7011, 7016, and 7014 in this order"
CC[C@@]1(O)C(=O)OCc2c1cc1n(c2=O)Cc2c-1nc1cc3c(c4c1c2[C@@H](NC(=O)[C@@H](C)O)CC4)OCO3 [PBX-7016],DDX5 degradation,[1],degrading DDX5; also recorded: inhibits DDX5 in a concentration-dependent manner; also recorded: works better than PBX-7014
same,DDX5 degradation,[1]; listed as 7016,"followed by 7011, 7016, and 7014 in this order"
CC[C@@]1(O)C(=O)OCc2c1cc1n(c2=O)Cc2c-1nc1cc3c(c4c1c2[C@@H](NC(=O)[C@@H](O)C1CC1)CC4)OCO3 [PBX-7024],apoptotic efficacy,[9],potent apoptotic efficacy
CC[C@@]1(O)C(=O)OCc2c1cc1n(c2=O)Cc2c-1nc1cc(F)c(C)c3c1c2[C@@H](N)CC3 [exatecan],DDX5 degradation,[1],exhibits a MoA that degrades the DDX5 protein
same,downregulating a tumor protein compared to SN-38,[5],better effect in downregulating a tumor protein
Trodelvy,diarrhea of all grades,[10],65%
same,"febrile neutropenia, patients",[10],7%
same,neutropenia grade 3 or higher,[10],47%
same,neutropenia of all grades,[10],61%
same,"neutropenic colitis, patients",[10],0.5%
